Literature values in patent US20170315129A1, “CANCER CELL DETECTION METHOD USING LIVING BODY-DERIVED CELLS OF BIOLOGICAL ORIGIN” (Hirosaki University, priority 2014, published 2017).

Test system: mammalian cells
Details: kinetics comparable to a radiolabeled D-glucose derivative; cited from earlier work

## O=[N+]([O-])c1ccc(N[C@H]2C(O)O[C@H](CO)[C@@H](O)[C@@H]2O)c2nonc12 (stereo partly shown) [2-NBDG]
  uptake into mammalian cells: taken up into mammalian cells through glucose transporters
